# Reference: article PMC7311426, “An amphipathic peptide with antibiotic activity against multidrug-resistant Gram-negative bacteria” (Nature Communications, 2020)
# Like-named read-outs stand apart in the source and are kept apart here. Residues, ends and D or L forms follow the SMILES beside them.
# Key:
# Test in all cases: microbe, parasite or virus in culture
# [1] = tested on: A. baumannii; conditions: A. baumannii Greece CI, XDR; PmxR; MHB; mode of 6 replicates
# Outline: (§1)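 Broth microdilution in MHB, 2-fold 12-point series from 128 or 64 down to 0.06 or 0.03 μg mL^−1, 5 × 10^5 CFU mL^−1. Extra runs in CAMHB per CLSI and in MHB with 1% agarose; n ≥ 6.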
# [2] = tested on: E. coli
# Outline: as §1
# [3] = tested on: K. pneumoniae; conditions: for MIC, broth microdilution: plate 1, colony 1; for MIC K. pneumoniae ATCC BAA-2146: NDM-1 strain, NBS Corning 3641 plate
# Outline: as §1
# [4] = tested on: P. aeruginosa
# Outline: as §1
smiles,measurement,setting,value
"CC(C)[C@@H]1NC(=O)[C@H](Cc2ccc(O)cc2)NC(=O)[C@H](Cc2c[nH]c3ccccc23)NC(=O)[C@@H](NC(=O)[C@H](Cc2ccccc2)NC(=O)CN)CSSC[C@@H](C(=O)N[C@@H](CC(N)=O)C(=O)O)NC(=O)[C@H](CCCNC(=N)N)NC(=O)[C@H](CCCNC(=N)N)NC(=O)[C@H](Cc2ccc(O)cc2)NC(=O)[C@@H]2CSSC[C@H](NC1=O)C(=O)N[C@@H](C)C(=O)N[C@@H](CCCNC(=N)N)C(=O)N[C@@H](CCCNC(=N)N)C(=O)N[C@@H](CC(N)=O)C(=O)NCC(=O)N[C@@H](C)C(=O)N[C@@H](CCCNC(=N)N)C(=O)N[C@@H](C(C)C)C(=O)N2 [AA139] (HELM PEPTIDE1{G.F.C.W.Y.V.C.A.R.R.N.G.A.R.V.C.Y.R.R.C.N}$PEPTIDE1,PEPTIDE1,3:R3-20:R3|PEPTIDE1,PEPTIDE1,7:R3-16:R3$$$V2.0)",BMD MIC,[1],0.5 µg/mL
same,MIC against ESBL producing E. coli DSA 443,[2],0.5 µg/mL
same,"MIC, broth microdilution",[2],0.06 µg/mL
same,"MIC, broth microdilution","[2]; E. coli AUD172 spontaneous mutant, AA139 selection 4X, plate 2, colony 2, drug-free passage 1",0.12 µg/mL
same,"MIC, broth microdilution","[2]; E. coli AUD172 spontaneous mutant, AA139 selection 4X, plate 2, colony 2, drug-free passage 5",0.25 µg/mL
same,BMD MIC,"[2]; E. coli ESBL20150072, mcr-1 pos, ESBL, CAMHB, AA139",0.5 µg/mL
same,BMD MIC,[3],0.5 µg/mL
same,MIC K. pneumoniae BAA-2146 (NDM-1),"[3]; BMD, MHB, 18-20 h 37 °C, mode of ≥6 independent biological replicates",1 µg/mL
same,"MIC, broth microdilution","[3]; K. pneumoniae 3010 spontaneous mutant, AA139 selection 4X, drug-free passage 1","2, 2 µg/mL"
same,"MIC, broth microdilution","[3]; K. pneumoniae 3010 spontaneous mutant, AA139 selection 4X, drug-free passage 5","2, 2 µg/mL"
same,"MIC, broth microdilution","[3]; K. pneumoniae 3010 spontaneous mutant, AA139 selection 8X, drug-free passage 1","2, 2 µg/mL"
same,"MIC, broth microdilution","[3]; K. pneumoniae 3010 spontaneous mutant, AA139 selection 8X, drug-free passage 5","2, 2 µg/mL"
same,BMD MIC,"[3]; K. pneumoniae ATCC 700603 (K6), MDR, OXA-2/SHV-18, CAMHB, mode of 6 replicates",2 µg/mL
same,BMD MIC,"[3]; K. pneumoniae ATCC 700603 (K6), MDR, OXA-2/SHV-18, MHB, mode of 6 replicates",0.5 µg/mL
same,BMD MIC,"[3]; K. pneumoniae BAA-2146, MDR, ESBL, NDM-1 pos, MHB, mode of 6 replicates",1 µg/mL
same,BMD MIC,"[3]; K. pneumoniae Greece CI 8_GR_13, XDR, KPC-2, PmxR, MHB, mode of 6 replicates",16 µg/mL
same,"MIC, broth microdilution","[3]; K. pneumoniae ST258 spontaneous mutant, AA139 selection 4X, drug-free passage 1","2, 2 µg/mL"
same,"MIC, broth microdilution","[3]; K. pneumoniae ST258 spontaneous mutant, AA139 selection 4X, drug-free passage 5","2, 2 µg/mL"
same,MIC K. pneumoniae ATCC BAA-2146,"[3]; CAMHB, replicate 1",1 µg/mL
same,MIC K. pneumoniae ATCC BAA-2146,"[3]; CAMHB, replicate 2",1 µg/mL
same,MIC K. pneumoniae ATCC BAA-2146,"[3]; CAMHB, replicate 3",1 µg/mL
same,MIC K. pneumoniae ATCC BAA-2146,"[3]; CAMHB, replicate 4",2 µg/mL
same,MIC K. pneumoniae ATCC BAA-2146,"[3]; CAMHB, replicate 5",1 µg/mL
same,MIC K. pneumoniae ATCC BAA-2146,"[3]; CAMHB, replicate 6",1 µg/mL
same,MIC K. pneumoniae ATCC BAA-2146,"[3]; CAMHB, replicate 7",0.5 µg/mL
same,MIC K. pneumoniae ATCC BAA-2146,"[3]; CAMHB, replicate 8",0.5 µg/mL
same,MIC K. pneumoniae ATCC BAA-2146,"[3]; CAMHB, replicate 9",0.5 µg/mL
same,MIC K. pneumoniae ATCC BAA-2146,"[3]; CAMHB, replicate 10",0.25 µg/mL
same,MIC K. pneumoniae ATCC BAA-2146,"[3]; CAMHB, replicate 11",0.5 µg/mL
same,MIC K. pneumoniae ATCC BAA-2146,"[3]; CAMHB, replicate 12",0.5 µg/mL
same,MIC K. pneumoniae ATCC BAA-2146,"[3]; CAMHB, replicate 13",1 µg/mL
same,MIC K. pneumoniae ATCC BAA-2146,"[3]; CAMHB, replicate 14",1 µg/mL
same,MIC against P. aeruginosa (ATCC 27853),[4],1.0 µg/mL
same,"MIC, broth microdilution",[4],1 µg/mL
same,"MIC, broth microdilution","[4]; P. aeruginosa ATCC 27853 spontaneous mutant, AA139 selection 4X, plate 1, colony 1, drug-free passage 1","1, 1 µg/mL"
same,"MIC, broth microdilution","[4]; P. aeruginosa ATCC 27853 spontaneous mutant, AA139 selection 4X, plate 1, colony 1, drug-free passage 5","1, 1 µg/mL"
same,"MIC, broth microdilution","[4]; P. aeruginosa ATCC 27853 spontaneous mutant, AA139 selection 4X, plate 1, colony 2, drug-free passage 1","1, 1 µg/mL"
same,"MIC, broth microdilution","[4]; P. aeruginosa ATCC 27853 spontaneous mutant, AA139 selection 4X, plate 1, colony 2, drug-free passage 5","1, 1 µg/mL"
same,"MIC, broth microdilution","[4]; P. aeruginosa ATCC 27853 spontaneous mutant, AA139 selection 4X, plate 1, colony 3, drug-free passage 1","1, 1 µg/mL"
same,"MIC, broth microdilution","[4]; P. aeruginosa ATCC 27853 spontaneous mutant, AA139 selection 4X, plate 1, colony 3, drug-free passage 5","1, 1 µg/mL"
same,"MIC, broth microdilution","[4]; P. aeruginosa ATCC 27853 spontaneous mutant, AA139 selection 4X, plate 1, colony 4, drug-free passage 1",2 µg/mL
same,"MIC, broth microdilution","[4]; P. aeruginosa ATCC 27853 spontaneous mutant, AA139 selection 4X, plate 1, colony 4, drug-free passage 5",1 µg/mL
same,"MIC, broth microdilution","[4]; P. aeruginosa ATCC 27853 spontaneous mutant, AA139 selection 4X, plate 1, colony 5, drug-free passage 1","2, 2 µg/mL"
same,"MIC, broth microdilution","[4]; P. aeruginosa ATCC 27853 spontaneous mutant, AA139 selection 4X, plate 1, colony 5, drug-free passage 5","2, 2 µg/mL"
same,"MIC, broth microdilution","[4]; P. aeruginosa ATCC 27853 spontaneous mutant, AA139 selection 4X, plate 1, colony 6, drug-free passage 1","1, 1 µg/mL"
same,"MIC, broth microdilution","[4]; P. aeruginosa ATCC 27853 spontaneous mutant, AA139 selection 4X, plate 1, colony 6, drug-free passage 5","1, 1 µg/mL"
same,"MIC, broth microdilution","[4]; P. aeruginosa ATCC 27853 spontaneous mutant, AA139 selection 4X, plate 2, colony 1, drug-free passage 1","1, 1 µg/mL"
same,"MIC, broth microdilution","[4]; P. aeruginosa ATCC 27853 spontaneous mutant, AA139 selection 4X, plate 2, colony 1, drug-free passage 5","1, 1 µg/mL"
same,"MIC, broth microdilution","[4]; P. aeruginosa ATCC 27853 spontaneous mutant, AA139 selection 4X, plate 2, colony 2, drug-free passage 1","1, 1 µg/mL"
same,"MIC, broth microdilution","[4]; P. aeruginosa ATCC 27853 spontaneous mutant, AA139 selection 4X, plate 2, colony 2, drug-free passage 5","1, 1 µg/mL"
same,"MIC, broth microdilution","[4]; P. aeruginosa ATCC 27853 spontaneous mutant, AA139 selection 4X, plate 2, colony 3, drug-free passage 1",1 µg/mL
same,"MIC, broth microdilution","[4]; P. aeruginosa ATCC 27853 spontaneous mutant, AA139 selection 4X, plate 2, colony 3, drug-free passage 5",0.5 µg/mL
same,"MIC, broth microdilution","[4]; P. aeruginosa ATCC 27853 spontaneous mutant, AA139 selection 4X, plate 2, colony 4, drug-free passage 1",1 µg/mL
same,"MIC, broth microdilution","[4]; P. aeruginosa ATCC 27853 spontaneous mutant, AA139 selection 4X, plate 2, colony 4, drug-free passage 5",0.5 µg/mL
